Consider one compound from patent publication US11578083B2, “Pyrimidinium compounds and their mixtures for combating animal pests” (BASF SE, priority 2017, dated 2023).

Holding throughout (format): in vivo
Assay [1] relates to Chilo suppressalis. Put plainly: B.3b Rice striped stem borer, foliar spraying. The procedure: All three pots (=replicates) of four to five-week old potted rice per treatment were simultaneously sprayed with 12 mL test solution. After spray application, plants were air dried in the laboratory before inoculation. After air-drying, 5 to 6-day old egg masses of CHILSU were used for inoculation. All stem borer-infested potted rice plants were transferred inside the screenhouse 1 day after inoculation until the final assessment. […] Whole plant damage was assessed before cutting each hill at the basal portion for tiller dissection. Each dissected tiller was inspected looking for dead (if possible) and alive stemborer larvae.

The subject of assay [2] is green peach aphid (Myzus persicae). Put plainly: Test 2 green peach aphid, artificial diet (mixtures). An excerpt: (§1) For evaluating control of green peach aphid (Myzus persicae) through systemic means the test unit consisted of 96-well-microtiter plates containing liquid artificial diet under an artificial membrane.
(§2) The compounds or mixtures were formulated using a solution containing 75% water and 25% DMSO. Concentrations of formulated compounds or mixtures were pipetted into the aphid diet, using a custom built pipetter, at two replications.
(§3) For experimental mixtures in these tests identical volumes of both mixing partners at the desired concentrations respectively, were mixed together.
(§4) After application, 5-8 adult aphids were placed on the artificial membrane inside the microtiter plate wells. The aphids were then allowed to suck on the treated aphid diet and incubated at 23±1° C., 50±5% RH for 3 days. Aphid mortality and fecundity was then visually assessed.

Assay [3] relates to Thrips (Dichromothrips corbetti). Put plainly: B.4 Thrips floral-immersion test. The note with it: 72 h. The procedure:
B.4 Thrips (Dichromothrips Corbetti):
Dichromothrips corbetti adults used for bioassay are obtained from a colony maintained continuously under laboratory conditions. For testing purposes, the test compound is diluted in a 1:1 mixture of acetone:water (vol:vol), plus 0.01% vol/vol Alkamuls® EL 620 surfactant.
Thrips potency of each compound is evaluated by using a floral-immersion technique. Plastic petri dishes are used as test arenas. All petals of individual, intact orchid flowers are dipped into treatment solution and allowed to dry. Treated flowers are placed into individual petri dishes along with about 20 adult thrips. The petri dishes v then covered with lids. All test arenas are held under continuous light and a temperature of about 28° C. for duration of the assay. After 3 days, the numbers of live thrips are counted on each flower, and along inner walls of each petri dish. The percent mortality is recorded 72 hours after treatment.

Assay [4] relates to boll weevil (Anthonomus grandis). Put plainly: Test 3 boll weevil, insect diet with eggs (mixtures). The procedure: For evaluating control of boll weevil (Anthonomus grandis) the test unit consisted of 24-well-microtiter plates containing an insect diet and 20-30 A. grandis eggs.
The compounds or mixtures were formulated using a solution containing 75% water and 25% DMSO. Concentrations of formulated compounds or mixtures were sprayed onto the insect diet at 20 μl, using a custom built micro atomizer, at two replications.
as §3
After application, microtiter plates were incubated at 23±1° C., 50±5% RH for 5 days. Egg and larval mortality was then visually assessed.

Assay [5] relates to Greenhouse Whitefly (Trialeurodes vaporariorum). Put plainly: Greenhouse Whitefly, egg plant leaf disk (table 5, mixtures). The note with it: solo application I-R-1, use rate 2 ppm. How it is done: For evaluating control of Greenhouse Whitefly (Trialeurodes vaporariorum) the test unit consisted of 96-well-microtiter plates containing a leaf disk of egg plant leaf disk with white fly eggs. The compounds or mixtures were formulated using a solution containing 75% water and 25% DMSO. Concentrations of formulated compounds or mixtures were sprayed onto the […] at 2.5 μl, using a custom built micro atomizer, at two replications.
as §3
(§5) After application, microtiter plates were incubated at 23±1° C., 65±5% RH for 6 days. Mortality of hatched crawlers was then visually assessed.

Assay [6] has as its system Chilo suppressalis. Put plainly: B.3c Rice striped stem borer, drench application. The conditions noted are these: Chilo suppressalis neonates, Dose 10 mg, 14 DAT. An excerpt: The test solution was poured onto the soil of each potted rice plant (=replicate) with five tillers each pot. After drench application, treated plants were transferred inside the screenhouse for three days prior to stemborer inoculation inside the laboratory. Three days after drench application, 5 to 6-day old egg masses of CHILSU were used for inoculation. All stemborer-infested potted rice plants were transferred inside the screenhouse 1 day after inoculation until the final assessment. […] Whole plant damage was assessed before cutting each hill at the basal portion for tiller dissection. Each dissected tiller was inspected looking for dead (if possible) and alive stemborer larvae.

Assay [7] has as its system Greenhouse Whitefly (Trialeurodes vaporariorum). Put plainly: Test 11 Greenhouse Whitefly, egg plant leaf disk (mixtures). The procedure: For evaluating control of Greenhouse Whitefly (Trialeurodes vaporariorum) the test unit consisted of 96-well-microtiter plates containing a leaf disk of egg plant leaf disk with white fly eggs.
The compounds or mixtures were formulated using a solution containing 75% water and 25% DMSO. Different concentrations of formulated compounds or mixtures were sprayed onto the insect diet at 2.5 μl, using a custom built micro atomizer, at two replications.
as §3, §5

The subject of assay [8] is green peach aphid (Myzus persicae). Put plainly: Test 8 green peach aphid, artificial diet (mixtures).
Text: as §1, §2, §3, §4

The subject of assay [9] is Cowpea aphid (Aphis craccivora). Put plainly: B.3 Cowpea aphid leaf disk test. The note with it: foliar, 120 h. How it is done: If not otherwise specified, the test solutions are prepared as follows:
The active compound is dissolved at the desired concentration in a mixture of 1:1 (vol:vol) distilled water: acetone. The test solution is prepared at the day of use.
B.3 Cowpea aphid (Aphis craccivora):
For evaluating control of Cowpea aphid through contact or systemic means the test unit consists of 24-well-microtiter plates containing broad bean leaf disks.
The compounds are formulated using a solution containing 75% v/v water and 25% v/v DMSO. Different concentrations of formulated compounds are sprayed onto the leaf disks at 2.5 μl, using a custom built micro atomizer, at two replications.
After application, the leaf disks are air-dried and 5-8 adult aphids placed on the leaf disks inside the microtiter plate wells. The aphids are then allowed to suck on the treated leaf disks and incubated at about 23±1° C. and about 50±5% relative humidity for 5 days. Aphid mortality and fecundity is then visually assessed.

The term mortality denotes the percentage killed. A lower mortality goes with more survivors. For `C[n+]1c([O-])c(-c2ccccc2)c(=O)n2c1SC[C@@H]2c1cnc(Cl)s1` [I-R-1, (3R)-3-(2-chlorothiazol-5-yl)-8-methyl-7-oxo-6-phenyl-2,3-dihydrothiazolo[3,2-a]pyrimidin-4-ium-5-olate], the “Feeding damage (%)” value came to 7% in the assay with Chilo suppressalis [1] (Chilo suppressalis neonates, foliar spraying, Dose 200 ppm, 14 DAT) and 7% in the assay on Chilo suppressalis [6]. Also, the mortality at 200 ppm in the assay on Chilo suppressalis [1] (Chilo suppressalis, foliar, 336 h) was 99%. Further, the Average control % in [2] (Table 2.1, solo application I-R-1, use rate 2 ppm) is reported as 25%; in assay [2] (Table 2.2, solo application I-R-1, use rate 2 ppm), 0%; in assay [2] (Table 2.3, solo application I-R-1, use rate 0.4 ppm), 50%; in assay [2] (Table 2.4, solo application I-R-1, use rate 50 ppm), 0%; in assay [2] (Table 2.5, solo application I-R-1, use rate 2 ppm), 50%; in assay [2] (Table 2.6, solo application I-R-1, use rate 2 ppm) it was 25%. Moreover, the Average control % in [4] (Table 3.1, solo application I-R-1, use rate 50 ppm) came out at 0%; in assay [4] (Table 3.2, solo application I-R-1, use rate 2 ppm) it was 0%; in [4] (Table 3.3, solo application I-R-1, use rate 2 ppm) it was 0%; in assay [5], 0%; in assay [7] (Table 11.1, solo application I-R-1, use rate 50 ppm), 25%; in assay [7] (Table 11.2, solo application I-R-1, use rate 10 ppm), 0%. Besides, the Average control % in [8] (Table 8.1, solo application I-R-1, use rate 0.4 ppm) is recorded as 0%; in [8] (Table 8.2, solo application I-R-1, use rate 0.4 ppm) it was 0%. In [3], this compound registered a mortality at 10 ppm of 100%. This compound had a mortality at 1 ppm in assay [9] of 90%.
